# How the values were obtained:
# NCI-H522 = test: NCI-60 SRB assay, NCI-H522 (NSCLC); format: cell-based, human; conditions: 10 µM, 48 h; for G%: growth vs untreated control
# Protocol: (§1) Primary anticancer assay was performed on a panel of 60 human cancer cell lines derived from nine neoplastic diseases, in accordance with the protocol of the Drug Evaluation Branch, National Cancer Institute, Bethesda, Maryland, USA[22]. Cells were incubated with tested compounds at 10 µM for 48 h. The growth percentage was evaluated spectrophotometrically using a protein binding dye, SRB. Results for each tested compound were reported as the percent of growth of treated cells when compared to untreated control cells.
# (§2) To better compare the activity profile of these two series of compounds, compounds 5 and 8 were selected and then evaluated towards a panel of sixty cancer cell lines corresponding to nine different cancer types, i.e. leukaemia, melanoma, as well as lung, colon, central nervous system, ovarian, renal, prostate and breast cancers (NCI evaluation). Indeed, it is now well established that the growth inhibitory patterns of anticancer drugs against the NCI-60 cell line panel correlated well with their modes of action. For example, compounds that bind to tubulin have similar growth inhibition patterns regardless of which site on tubulin they bind[30]. […] Compounds were tested using the sulforhodamine B (SRB) assay that provides a direct cell density index. The amount of dye incorporated by the cells increases with the increase of the total protein biomass. Cells were incubated for 48 h with compounds at 10 µM concentration, then cell growth was evaluated spectrophotometrically and presented as the percent of untreated control cells. Values of the most sensitive cell lines were compared to those obtained with JMV5038 (Figure 4, for all data see SI).
# M14 = test: NCI-60 SRB assay, M14 (Melanoma); format: cell-based, human; conditions: 10 µM, 48 h; for G%: growth vs untreated control
# Protocol: as §1, §2
# MALME-3M = test: NCI-60 SRB assay, MALME-3M (Melanoma); format: cell-based, human; conditions: 10 µM, 48 h; for G%: growth vs untreated control
# Protocol: as §1, §2
# HCC-2998 = test: NCI-60 SRB assay, HCC-2998 (Colon Cancer); format: cell-based, human; conditions: 10 µM, 48 h; for G%: growth vs untreated control;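 on Mean G% - G%: mean growth across the NCI-60 panel minus this line's growth with positive meaning more sensitive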
# Protocol: as §1, §2
# MDA-MB-231 = test: NCI-60 SRB assay, MDA-MB-231 (Breast Cancer); format: cell-based, human; conditions: 10 µM, 48 h; for G%: growth vs untreated control;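 on Mean G% - G%: mean growth across the NCI-60 panel minus this line's growth with positive meaning more sensitive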
# Protocol: as §1, §2
# ACHN = test: NCI-60 SRB assay, ACHN (Renal Cancer); format: cell-based, human; conditions: 10 µM, 48 h; for G%: growth vs untreated control
# Protocol: as §1, §2
# OVCAR-3 = test: NCI-60 SRB assay, OVCAR-3 (Ovarian Cancer); format: cell-based, human; conditions: 10 µM, 48 h; for G%: growth vs untreated control;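 on Mean G% - G%: mean growth across the NCI-60 panel minus this line's growth with positive meaning more sensitive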
# Protocol: as §1, §2
# A375 melanoma cells = test: Neutral red uptake (NRU) viability assay, A375; format: cell-based, human; conditions: Homo sapiens, A-375, 72 h, mean ± SD of three experiments
# Protocol: Melanoma human cancer cell line (A375 and MDA-MB-435) were obtained from ATCC. The NIH-3T3 cell line was generously gifted by the ANSM (French National Agency for Medicines and Health Products Safety, Vendargues, France). Cells were cultured in Dulbecco’s Modified Eagle Medium (DMEM, Sigma Aldrich) supplemented with 10% heat-inactivated foetal calf serum (FCS, Gibco), 2 mM glutamax (Gibco), 100 IU/mL penicillin G sodium (Sigma Aldrich), 100 lU/mL streptomycin sulphate (Sigma Aldrich). The cells were allowed to grow at 37 °C in a fully humidified atmosphere containing 5% CO2.
# A viability assay was used to evaluate the cytotoxic activity on A375 and MDA-MB-435 melanoma cells as previously described. According to OCDE/ICCVAM guidance n°129, NRU assay was also used to evaluate the toxicity on the non-cancerous NIH-3T3 cells. Cells were seeded at a final concentration of 2000 cells/well (A375), 3000 cells/well (NIH-3T3) or 7500 cells/well (MDA-MB-435) in 96-well microtiter plates for 24 h. Then, cells were exposed to two negative controls (1% DMSO in culture medium (vehicle) and culture medium alone), or to different compounds freshly dissolved in DMSO, in a range of concentration from 0.01 to 40 µM (six wells per concentration). After 72 h of incubation, cells were stained with new medium containing 50 µg/mL of neutral red (3-amino-7-dimethylamino-2-methylphenazine hydrochloride, Sigma Aldrich) at 37 °C for 2 h. The neutral red medium solution was then removed and the wells were washed with PBS. Finally, 100 µL of solution containing ethanol, acetic acid and water (50/1/49 v/v/v respectively) were added into the wells and the absorbance was measured at 540 nm using the microplate reader 352 Multiscan MS (Labsystems). Cell survival rates were normalised to the absorbance values of untreated control cells. IC50 was obtained using a logistic regression model on Graphpad Prism 5.0 software. Results are given as the mean ± standard deviation (SD) of three independent experiments. Statistical analysis was performed using the Student’s t-test.
# SW-620 = test: NCI-60 SRB assay, SW-620 (Colon Cancer); format: cell-based, human; conditions: 10 µM, 48 h; for G%: growth vs untreated control
# Protocol: as §1, §2
# SF-295 = test: NCI-60 SRB assay, SF-295 (CNS Cancer); format: cell-based, human; conditions: 10 µM, 48 h; for G%: growth vs untreated control
# Protocol: as §1, §2
# SNB-75 = test: NCI-60 SRB assay, SNB-75 (CNS Cancer); format: cell-based, human; conditions: 10 µM, 48 h; for G%: growth vs untreated control
# Protocol: as §1, §2
# NCI/ADR-RES = test: NCI-60 SRB assay, NCI/ADR-RES (Ovarian Cancer); format: cell-based, human; conditions: 10 µM, 48 h; for G%: growth vs untreated control;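 on Mean G% - G%: mean growth across the NCI-60 panel minus this line's growth with positive meaning more sensitive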
# Protocol: as §1, §2
# SK-MEL-28 = test: NCI-60 SRB assay, SK-MEL-28 (Melanoma); format: cell-based, human; conditions: 10 µM, 48 h; for G%: growth vs untreated control
# Protocol: as §1, §2
# KM12 = test: NCI-60 SRB assay, KM12 (Colon Cancer); format: cell-based, human; conditions: 10 µM, 48 h; for G%: growth vs untreated control
# Protocol: as §1, §2
# SK-OV-3 = test: NCI-60 SRB assay, SK-OV-3 (Ovarian Cancer); format: cell-based, human; conditions: 10 µM, 48 h; for G%: growth vs untreated control
# Protocol: as §1, §2
# A498 = test: NCI-60 SRB assay, A498 (Renal Cancer); format: cell-based, human; conditions: 10 µM, 48 h; for G%: growth vs untreated control
# Protocol: as §1, §2
# A549/ATCC = test: NCI-60 SRB assay, A549/ATCC (NSCLC); format: cell-based, human; conditions: 10 µM, 48 h; for G%: growth vs untreated control
# Protocol: as §1, §2
# MDA-MB-435 = test: NCI-60 SRB assay, MDA-MB-435 (Melanoma); format: cell-based, human; conditions: MDA-MB-435, 10 µM, 48 h, SRB; for G%: growth vs untreated control
# Protocol: as §1, §2
# T-47D = test: NCI-60 SRB assay, T-47D (Breast Cancer); format: cell-based, human; conditions: 10 µM, 48 h; for G%: growth vs untreated control
# Protocol: as §1, §2
# HT29 = test: NCI-60 SRB assay, HT29 (Colon Cancer); format: cell-based, human; conditions: 10 µM, 48 h; for G%: growth vs untreated control
# Protocol: as §1, §2
# SF-539 = test: NCI-60 SRB assay, SF-539 (CNS Cancer); format: cell-based, human; conditions: 10 µM, 48 h; for G%: growth vs untreated control
# Protocol: as §1, §2
# CAKI-1 = test: NCI-60 SRB assay, CAKI-1 (Renal Cancer); format: cell-based, human; conditions: 10 µM, 48 h; for G%: growth vs untreated control
# Protocol: as §1, §2
# [1] = system: NCI-60 cancer cell line panel; test: NCI-60 SRB assay, whole panel; format: cell-based, human; conditions: 10 µM, 48 h
# Protocol: as §1, §2
structure (smiles),measurement,setting,value
"C[C@@H]1NC(c2csc3ccccc23)=Nc2nc3ccccn3c2C1=O [Compound 8, (4S)-4-methyl-2-benzothiophen-3-yl-3,4-dihydro-5H-pyrido[1’,2’:1,2]imidazo[4,5-d][1,3]diazepin-5-one]",Mean G% - G%,NCI-H522,"-20,45%"
same,G%,NCI-H522,"95,32%"
same,Mean G% - G%,M14,"-16,75%"
same,G%,M14,"91,62%"
same,Mean G% - G%,MALME-3M,"-0,21%"
same,G%,MALME-3M,"75,08%"
same,Mean G% - G%,HCC-2998,"-23,19%"
same,G%,HCC-2998,"98,06%"
same,Mean G% - G%,MDA-MB-231,"6,94%"
same,G%,MDA-MB-231,"67,93%"
same,Mean G% - G%,ACHN,"-4,72%"
same,G%,ACHN,"79,59%"
same,Mean G% - G%,OVCAR-3,"-5,26%"
same,G%,OVCAR-3,"80,13%"
same,IC50,A375 melanoma cells,7.97 ± 0.65 µM
same,Mean G% - G%,SW-620,"-0,70%"
same,G%,SW-620,"75,57%"
same,Mean G% - G%,SF-295,"-8,66%"
same,G%,SF-295,"83,53%"
same,Mean G% - G%,SNB-75,"60,36%"
same,G%,SNB-75,"14,51%"
same,Mean G% - G%,NCI/ADR-RES,"-2,84%"
same,G%,NCI/ADR-RES,"77,71%"
same,Mean G% - G%,SK-MEL-28,"-23,33%"
same,G%,SK-MEL-28,"98,20%"
same,Mean G% - G%,KM12,"4,90%"
same,G%,KM12,"69,97%"
same,Mean G% - G%,SK-OV-3,"7,58%"
same,G%,SK-OV-3,"67,29%"
same,melting point,,135 to 137 °C
same,Mean G% - G%,A498,"13,54%"
same,G%,A498,"61,33%"
same,Mean G% - G%,A549/ATCC,"8,10%"
same,G%,A549/ATCC,"66,77%"
same,Mean G% - G%,MDA-MB-435,"-0,17%"
same,G%,MDA-MB-435,"75,04%"
same,Mean G% - G%,T-47D,"28,96%"
same,G%,T-47D,"45,91%"
same,Mean G% - G%,HT29,"-10,58%"
same,G%,HT29,"85,45%"
same,Mean G% - G%,SF-539,"-1,87%"
same,G%,SF-539,"76,74%"
same,Mean G% - G%,CAKI-1,"39,76%"
same,G%,CAKI-1,"35,11%"
same,Mean G% (mean growth over the panel),[1],74.87%
C[C@@H]1NC(c2ccc(Br)cc2)=Nc2nc3ccccn3c2C1=O [JMV5038],Mean G% - G%,NCI-H522,"19,43%"
same,G%,NCI-H522,"34,81%"
same,Mean G% - G%,M14,"22,48%"
same,G%,M14,"31,76%"
same,Mean G% - G%,MALME-3M,"2,49%"
same,G%,MALME-3M,"51,75%"
same,Mean G% - G%,HCC-2998,"-14,80%"
same,G%,HCC-2998,"69,04%"
same,Mean G% - G%,MDA-MB-231,"1,53%"
same,G%,MDA-MB-231,"52,71%"
same,Mean G% - G%,ACHN,"-14,97%"
same,G%,ACHN,"69,21%"
same,Mean G% - G%,OVCAR-3,"36,95%"
same,G%,OVCAR-3,"17,29%"
same,IC50,A375 melanoma cells,2.1 ± 0.42 µM
same,Mean G% - G%,SW-620,"16,28%"
same,G%,SW-620,"37,96%"
same,Mean G% - G%,SF-295,"13,36%"
same,G%,SF-295,"40,88%"
same,Mean G% - G%,SNB-75,"4,08%"
same,G%,SNB-75,"50,16%"
same,Mean G% - G%,NCI/ADR-RES,"14,87%"
same,G%,NCI/ADR-RES,"39,37%"
same,Mean G% - G%,SK-MEL-28,"-11,91%"
same,G%,SK-MEL-28,"66,15%"
same,Mean G% - G%,KM12,"24,69%"
same,G%,KM12,"29,55%"
same,Mean G% - G%,SK-OV-3,"-17,78%"
same,G%,SK-OV-3,"72,02%"
same,Mean G% - G%,A498,"-15,64%"
same,G%,A498,"69,88%"
same,Mean G% - G%,A549/ATCC,"-0,42%"
same,G%,A549/ATCC,"54,66%"
same,Mean G% - G%,MDA-MB-435,"67,26%"
same,G%,MDA-MB-435,"-13,02%"
same,Mean G% - G%,T-47D,"-12,99%"
same,G%,T-47D,"67,23%"
same,Mean G% - G%,HT29,"36,72%"
same,G%,HT29,"17,52%"
same,Mean G% - G%,SF-539,"-20,40%"
same,G%,SF-539,"74,64%"
same,Mean G% - G%,CAKI-1,"10,09%"
same,G%,CAKI-1,"44,15%"
same,Mean G% (mean growth over the panel),[1],"54,24%"

# From article PMC7170309, “Imidazopyridine-fused [1,3]diazepinones: modulations of positions 2 to 4 and their impacts on the anti-melanoma activity” (Journal of Enzyme Inhibition and Medicinal Chemistry, 2020)
